{"source": "patent US20040033901A1", "about": "“Uses for cellulose-containing aggregates” (priority 1994, published 2004)", "system": "termites", "test": "field test of termite attack on a weighted board on a one inch bed of aggregates", "format": "in vivo", "details": "one inch thick bed on ground surface in termite-infested area, after one year", "source_text": "In a field test, a one inch thick bed of aggregates containing either 0.1% Deltamethrin, 0.001% Deltamethrin, or no Deltamethrin were positioned on ground surface in an area known to be infested with termites and a weighted board was positioned on the top of the bed. […] Thus, at least for Deltamethrin, a toxin level of 0.001 wt % appears both effective and long lived."}
{"smiles": "CC1(C)[C@H](C(=O)O[C@H](C#N)c2cccc(Oc3ccccc3)c2)[C@@H]1C=C(Br)Br", "note": "[Deltamethrin]", "values": [{"measurement": "protection of board from termite attack", "setting": "aggregates containing 0.001% Deltamethrin", "value": "totally protected"}, {"measurement": "protection of board from termite attack", "setting": "aggregates containing 0.1% Deltamethrin", "value": "totally protected"}]}
